Results: paper PMC10216305, “Introduction of a Polyethylene Glycol Linker Improves Uptake of ^67Cu-NOTA-Conjugated Lactam-Cyclized Alpha-Melanocyte-Stimulating Hormone Peptide in Melanoma” (Cancers, 2023)
One block for each compound: values may come before it. Positions of bridges follow the written chain, without caps; N, C: chain ends. Non-standard residues stand in square brackets, D forms with d. Residues, ends and D or L forms follow the SMILES beside them. *: point of attachment. NOTA = O=C(O)CN1CCN(CC(=O)O)CCN(CC(=O)*)CC1; Nle = CCCC[C@H](N)C(=O)O

Test: in vivo
Set-up: species or system mice
Settings: C57, mouse, iv, total radioactivity
Procedure: All animal studies were conducted in compliance with Institutional Animal Care and Use Committee approval. C57 mice were purchased from Charles River Laboratory (Wilmington, NC). B16/F10 melanoma-bearing C57 mice were generated according to our previous publication. Each melanoma-bearing mouse was injected with 0.037 MBq of ^67Cu-NOTA-PEG2Nle-CycMSHhex or ^67Cu-NOTA-GGNle-CycMSHhex via the tail vein. The tumor uptake specificity of ^67Cu-NOTA-PEG2Nle-CycMSHhex and ^67Cu-NOTA-GGNle-CycMSHhex was determined by co-injecting 10 μg (6.07 nmol) of unlabeled NDP-MSH. Mice were sacrificed at 0.5, 2, 4, and 24 h post-injection, and tumors and organs of interest were harvested, weighed, and counted. The blood value was taken as 6.5% of the whole-body weight.

[1] = 0.037 MBq, Kidneys uptake (renal uptake)
[2] = 0.037 MBq, Normal organ uptake, except for kidney uptake
[3] = 0.037 MBq, Uptake ratio Tumor/blood
[4] = 0.037 MBq, Uptake ratio Tumor/kidney
[5] = 0.037 MBq, Uptake ratio Tumor/liver
[6] = 0.037 MBq, Uptake ratio Tumor/lung
[7] = 0.037 MBq, Uptake ratio Tumor/muscle
[8] = 0.037 MBq, Tumor/liver ratio as times the tumor/liver ratio of ^67Cu-NOTA-GGNle-CycMSHhex

- tissue uptake dose at 0.5 h (0.037 MBq): 1.46 ± 0.49 %ID
- tissue uptake dose at 2 h (0.037 MBq): 1.3 ± 0.27 %ID
- tissue uptake dose at 4 h (0.037 MBq): 2.7 ± 0.26 %ID
- tissue uptake dose at 24 h (0.037 MBq): 0.94 ± 0.32 %ID
- tissue uptake at 0.5 h (0.037 MBq, Blood uptake): 1.22 ± 0.08 %ID/g
- tissue uptake at 4 h (0.037 MBq, Blood uptake): 0.06 ± 0.07 %ID/g
- tissue uptake at 0.5 h (0.037 MBq, Bone uptake): 0.68 ± 0.1 %ID/g
- tissue uptake at 4 h (0.037 MBq, Bone uptake): 0.06 ± 0.06 %ID/g
- tissue uptake at 4 h (0.037 MBq, Brain uptake): 0.02 ± 0.03 %ID/g
- tissue uptake at 24 h (0.037 MBq, Brain uptake): 0.02 ± 0.02 %ID/g
- tissue uptake at 0.5 h [1]: 7.18 ± 2.63 %ID/g
- tissue uptake at 2 h [1]: 5.08 ± 1.52 %ID/g
- tissue uptake at 4 h [1]: 4.21 ± 0.92 %ID/g
- tissue uptake at 24 h [1]: 1.19 ± 0.28 %ID/g
- tissue uptake at 0.5 h (0.037 MBq, Liver uptake): 1.15 ± 0.07 %ID/g
- tissue uptake at 2 h (0.037 MBq, Liver uptake): 1.49 ± 0.56 %ID/g
- tissue uptake at 24 h (0.037 MBq, Liver uptake): 0.82 ± 0.12 %ID/g
- tissue uptake at 2 h [2]: < 2 %ID/g
- tissue uptake at 2 h (0.037 MBq, Pancreas uptake): 0.12 ± 0.08 %ID/g
- tissue uptake at 24 h (0.037 MBq, Pancreas uptake): 0.02 ± 0.01 %ID/g
- tissue uptake at 24 h (0.037 MBq, Skin uptake): 0.02 ± 0.01 %ID/g
- tissue uptake at 0.5 h (0.037 MBq, Spleen uptake): 0.52 ± 0.32 %ID/g
- tissue uptake at 4 h (0.037 MBq, Spleen uptake): 0.12 ± 0.08 %ID/g
- tissue uptake at 0.5 h (0.037 MBq, Stomach uptake): 1.53 ± 0.53 %ID/g
- tissue uptake at 2 h (0.037 MBq, Stomach uptake): 0.81 ± 0.14 %ID/g
- tissue uptake at 0.5 h (0.037 MBq, Tumor uptake): 16.6 ± 1.4 %ID/g
- tissue uptake at 4 h (0.037 MBq, Tumor uptake): 8.79 ± 1.31 %ID/g
- tissue to tissue ratio at 0.5 h [3]: 13.6
- tissue to tissue ratio at 2 h [3]: 389
- tissue to tissue ratio at 4 h [3]: 146
- tissue to tissue ratio at 24 h [3]: 492
- tissue to tissue ratio at 0.5 h [4]: 2.31
- tissue to tissue ratio at 2 h [4]: 2.29
- tissue to tissue ratio at 4 h [4]: 2.09
- tissue to tissue ratio at 24 h [4]: 4.13
- tissue to tissue ratio at 0.5 h [5]: 14.4
- tissue to tissue ratio at 2 h [5]: 7.83
- tissue to tissue ratio at 4 h [5]: 8.62
- tissue to tissue ratio at 24 h [5]: 6
- tissue to tissue ratio at 0.5 h [6]: 30.7
- tissue to tissue ratio at 2 h [6]: 28.4
- tissue to tissue ratio at 4 h [6]: 23.8
- tissue to tissue ratio at 24 h [6]: 18.2
- tissue to tissue ratio at 0.5 h [7]: 32.5
- tissue to tissue ratio at 2 h [7]: 292
- tissue to tissue ratio at 4 h [7]: 879
- tissue to tissue ratio at 24 h [7]: 492
- tissue uptake dose at 2 h: 1.48 ± 0.17 %ID
- tissue to tissue ratio at 2 h (Uptake ratio Tumor/kidney): 0.19
- tissue to tissue ratio at 2 h (Uptake ratio Tumor/liver): 0.92
- tissue to tissue ratio at 2 h (Uptake ratio Tumor/lung): 2.44
Structure (SMILES): CCCC[C@H](NC(=O)CNC(=O)CNC(=O)CN1CCN(CC(=O)O)CCN(CC(=O)O)CC1)C(=O)N[C@H]1CC(=O)NCCCC[C@@H](C(N)=O)NC(=O)[C@H](Cc2c[nH]c3ccccc23)NC(=O)[C@H](CCCNC(=N)N)NC(=O)[C@@H](Cc2ccccc2)NC(=O)[C@H](Cc2c[nH]cn2)NC1=O [^67Cu-NOTA-GGNle-CycMSHhex, ^67Cu-NOTA-GlyGlyNle-CycMSHhex, metal not drawn] ({NOTA}-GG[Nle]DH[dF]RWK-NH2; lactam 4-9)

- tissue uptake dose at 0.5 h (0.037 MBq): 0.83 ± 0.09 %ID
- tissue uptake dose at 2 h (0.037 MBq): 0.95 ± 0.16 %ID
- tissue uptake dose at 24 h (0.037 MBq): 0.77 ± 0.12 %ID
- tissue uptake at 0.5 h (0.037 MBq, Blood uptake): 0.63 ± 0.26 %ID/g
- tissue uptake at 0.5 h (0.037 MBq, Bone uptake): 0.6 ± 0.35 %ID/g
- tissue uptake at 0.5 h (0.037 MBq, Brain uptake): 0.04 ± 0.02 %ID/g
- tissue uptake at 24 h (0.037 MBq, Brain uptake): 0.04 ± 0.03 %ID/g
- tissue uptake at 0.5 h (0.037 MBq, Heart uptake): 0.58 ± 0.18 %ID/g
- tissue uptake at 2 h (0.037 MBq, Heart uptake): 0.79 ± 0.06 %ID/g
- tissue uptake at 4 h (0.037 MBq, Heart uptake): 0.34 ± 0.08 %ID/g
- tissue uptake at 0.5 h [1]: 6.43 ± 1.31 %ID/g
- tissue uptake at 2 h [1]: 6.34 ± 1.63 %ID/g
- tissue uptake at 4 h [1]: 2.6 ± 0.79 %ID/g
- tissue uptake at 0.5 h (0.037 MBq, Liver uptake): 0.95 ± 0.19 %ID/g
- tissue uptake at 2 h (0.037 MBq, Liver uptake): 1.09 ± 0.14 %ID/g
- tissue uptake at 4 h (0.037 MBq, Liver uptake): 1.41 ± 0.26 %ID/g
- tissue uptake at 24 h (0.037 MBq, Liver uptake): 0.84 ± 0.15 %ID/g
- tissue uptake at 0.5 h (0.037 MBq, Lung uptake): 0.76 ± 0.16 %ID/g
- tissue uptake at 4 h (0.037 MBq, Lung uptake): 0.62 ± 0.18 %ID/g
- tissue uptake at 0.5 h (0.037 MBq, Muscle uptake): 0.48 ± 0.12 %ID/g
- tissue uptake at 2 h [2]: < 2 %ID/g
- tissue uptake at 4 h [2]: < 2.6 %ID/g
- tissue uptake at 0.5 h (0.037 MBq, Skin uptake): 1.77 ± 0.28 %ID/g
- tissue uptake at 4 h (0.037 MBq, Skin uptake): 0.18 ± 0.07 %ID/g
- tissue uptake at 0.5 h (0.037 MBq, Spleen uptake): 0.37 ± 0.1 %ID/g
- tissue uptake at 0.5 h (0.037 MBq, Stomach uptake): 1.13 ± 0.36 %ID/g
- tissue uptake at 0.5 h (0.037 MBq, Tumor uptake): 8.83 ± 2.19 %ID/g
- tissue uptake at 4 h (0.037 MBq, Tumor uptake): 24.1 ± 1.83 %ID/g
- tissue uptake at 24 h (0.037 MBq, Tumor uptake): 9.13 ± 1.66 %ID/g
- tissue to tissue ratio at 2 h [8]: 3.3
- tissue to tissue ratio at 4 h [8]: 2
- tissue to tissue ratio at 24 h [8]: 1.8
- tissue to tissue ratio at 4 h [3]: 482
- tissue to tissue ratio at 24 h [3]: 456
- tissue to tissue ratio at 0.5 h [4]: 1.37
- tissue to tissue ratio at 2 h [4]: 4.41
- tissue to tissue ratio at 4 h [4]: 9.27
- tissue to tissue ratio at 24 h [4]: 10.1
- tissue to tissue ratio at 0.5 h [5]: 9.29
- tissue to tissue ratio at 2 h [5]: 25.7
- tissue to tissue ratio at 4 h [5]: 17.1
- tissue to tissue ratio at 0.5 h [6]: 11.6
- tissue to tissue ratio at 2 h [6]: 52.8
- tissue to tissue ratio at 4 h [6]: 38.9
- tissue to tissue ratio at 24 h [6]: 26.1
- tissue to tissue ratio at 0.5 h [7]: 18.4
- tissue to tissue ratio at 2 h [7]: 34.5
- tissue to tissue ratio at 4 h [7]: 803
- tissue to tissue ratio at 24 h [7]: 913
- tissue uptake dose at 2 h: 2.09 ± 0.96 %ID
- tissue to tissue ratio at 2 h (Uptake ratio Tumor/kidney): 0.34
- tissue to tissue ratio at 2 h (Uptake ratio Tumor/liver): 0.98
- tissue to tissue ratio at 2 h (Uptake ratio Tumor/lung): 2.44
- tissue to tissue ratio at 2 h (Uptake ratio Tumor/muscle): 166
Structure (SMILES): CCCC[C@H](NC(=O)COCCOCCNC(=O)CN1CCN(CC(=O)O)CCN(CC(=O)O)CC1)C(=O)N[C@H]1CC(=O)NCCCC[C@@H](C(N)=O)NC(=O)[C@H](Cc2c[nH]c3ccccc23)NC(=O)[C@H](CCCNC(=N)N)NC(=O)[C@@H](Cc2ccccc2)NC(=O)[C@H](Cc2c[nH]cn2)NC1=O [^67Cu-NOTA-PEG2Nle-CycMSHhex, ^67Cu-1,4,7-triazacyclononane-1,4,7-triyl-triacetic acid-polyethylene glycol-Nle-c[Asp-His-DPhe-Arg-Trp-Lys]-CONH2, metal not drawn]
